In patent US20060069132A1, “Azolecarboxamide herbicides” (priority 2004, published 2006):

Columns and labels:
lambsquarters = assay: Test B pre-/postemergence herbicide test; format: in vivo, Chenopodium album; details: for Lambsquarters plant response rating: postemergence, visual rating, scale 0 (no effect) to 100 (complete control)
Method in brief: (§1)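 Plants compared with untreated controls 13–15 days post-treatment and given a visual 0–100 injury score. Applications: preemergence to seeds; postemergence at 1- to 4-leaf (2–18 cm); paddy species flooded, 2-leaf stage. Vehicle non-phytotoxic, surfactant included.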

[1] = system: small flower umbrella sedge; assay: Test B flooded paddy test; format: in vivo, Cyperus difformis; details: 1000 g ai/ha, visual rating, scale 0 to 100 (0 no effect, 100 complete control), 13 to 15 days
Method in brief: (§2)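 Each value is a visual 0–100 response rating taken against controls 13 to 15 days after treatment in the greenhouse. Plants received formulated chemical postemergence at the 1- to 4-leaf stage or, in flooded paddy, at the 2-leaf stage.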

wild oat = assay: Test B postemergence herbicide test; format: in vivo, Avena fatua; details: postemergence, visual rating, scale 0 (no effect) to 100 (complete control)
Method in brief: (§3)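 Scale 0–100: zero equals no visible effect, 100 complete control, judged by eye relative to controls. Timing: 13 to 15 days in greenhouse post-treatment. Growth stage at spraying: two leaves (paddy) or one to four leaves, 2–18 cm (postemergence).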

corn = assay: Test B pre-/postemergence herbicide test; format: in vivo, Zea mays; details: for Corn plant response rating: postemergence, visual rating, scale 0 (no effect) to 100 (complete control)
Method in brief: as §1

large crabgrass = assay: Test B pre-/postemergence herbicide test; format: in vivo, Digitaria sanguinalis; details: for Crabgrass, Large plant response rating: postemergence, visual rating, scale 0 (no effect) to 100 (complete control)
Method in brief: as §1

velvetleaf = assay: Test B pre-/postemergence herbicide test; format: in vivo, Abutilon theophrasti; details: for Velvetleaf plant response rating: postemergence, visual rating, scale 0 (no effect) to 100 (complete control)
Method in brief: as §1

giant foxtail = assay: Test B pre-/postemergence herbicide test; format: in vivo, Setaria faberi; details: for Foxtail, Giant plant response rating: postemergence, visual rating, scale 0 (no effect) to 100 (complete control)
Method in brief: as §1

morningglory = assay: Test B pre-/postemergence herbicide test; format: in vivo, Ipomoea coccinea; details: for Morningglory plant response rating: postemergence, visual rating, scale 0 (no effect) to 100 (complete control)
Method in brief: (§4)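 Evaluation is visual, comparing treated with control plants on a scale where 0 means no effect and 100 means full control. Treatments were preemergence, or postemergence on seedlings 2–18 cm tall, and held 13–15 days in the greenhouse.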

ducksalad = assay: Test B flooded paddy test; format: in vivo, Heteranthera limosa; details: 1000 g ai/ha, visual rating, scale 0 to 100 (0 no effect, 100 complete control), 13 to 15 days
Method in brief: as §2

barnyardgrass [2] = assay: Test B flooded paddy test; format: in vivo, Echinochloa crus-galli; details: 1000 g ai/ha, visual rating, scale 0 to 100 (0 no effect, 100 complete control), 13 to 15 days
Method in brief: as §2

Surinam grass = assay: Test B pre-/postemergence herbicide test; format: in vivo, Urochloa decumbens; details: for Surinam Grass plant response rating: postemergence, visual rating, scale 0 (no effect) to 100 (complete control)
Method in brief: as §1

blackgrass = assay: Test B postemergence herbicide test; format: in vivo, Alopecurus myosuroides; details: postemergence, visual rating, scale 0 (no effect) to 100 (complete control)
Method in brief: as §2

rice [3] = assay: Test B pre-/postemergence herbicide test; format: in vivo, Oryza sativa; details: preemergence
Method in brief: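 Greenhouse pot assay with simultaneous preemergence (treated seed) and postemergence (2–18 cm seedlings) applications of surfactant-containing, non-phytotoxic solvent formulations. Response scored visually 13–15 days later on a 0–100 scale, 100 meaning complete control.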

cocklebur = assay: Test B pre-/postemergence herbicide test; format: in vivo, Xanthium strumarium; details: for Cocklebur plant response rating: postemergence, visual rating, scale 0 (no effect) to 100 (complete control)
Method in brief: as §4

barnyardgrass [4] = assay: Test B pre-/postemergence herbicide test; format: in vivo, Echinochloa crus-galli; details: for Barnyardgrass plant response rating: postemergence, visual rating, scale 0 (no effect) to 100 (complete control)
Method in brief: as §4

rice [5] = assay: Test B flooded paddy test; format: in vivo, Oryza sativa; details: 1000 g ai/ha, visual rating, scale 0 to 100 (0 no effect, 100 complete control), 13 to 15 days
Method in brief: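 Formulated test chemicals went onto postemergence plants measuring 2 to 18 cm, at one to four leaves. For the paddy assay, species had reached two leaves. Scoring took place 13–15 days later by eye, relative to untreated plants, using 0 for no effect up to 100 for full control.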

wheat = assay: Test B postemergence herbicide test; format: in vivo, Triticum aestivum; parameters: key to Wheat plant response rating: 0 = no effect, 100 = complete control; details: postemergence, visual rating, scale 0 (no effect) to 100 (complete control)
Method in brief: as §3

pigweed = assay: Test B pre-/postemergence herbicide test; format: in vivo, Amaranthus retroflexus; details: for Pigweed plant response rating: postemergence, visual rating, scale 0 (no effect) to 100 (complete control)
Method in brief: as §1

[6] = 125 g ai/ha, 0 = no effect, 100 = complete control, preemergence
[7] = 500 g ai/ha, visual rating 0-100, 0 no effect, 100 complete control, preemergence

## CCN(CC)C(=O)c1cccc(NC(=O)c2cn(C(C)(C)C)nc2C)c1 [Compound 184]
lambsquarters; [6]
  Lambsquarters plant response rating (0 to 100 scale): 50
lambsquarters; [7]
  Plant response rating, Lambsquarters: 80
lambsquarters; 125 g ai/ha
  Lambsquarters plant response rating: 60
lambsquarters; 500 g ai/ha
  Lambsquarters plant response rating: 70
[1]
  Sedge, Umbrella plant response rating: 30
Wild oat; 125 g ai/ha
  Oat, Wild plant response rating: 20
Wild oat; 500 g ai/ha
  Oat, Wild plant response rating: 30
corn; [6]
  Corn plant response rating (0 to 100 scale): 0
corn; [7]
  Plant response rating, Corn: 0
corn; 125 g ai/ha
  Corn plant response rating: 20
corn; 500 g ai/ha
  Corn plant response rating: 30
Large crabgrass; [6]
  Crabgrass, Large plant response rating (0 to 100 scale): 30
Large crabgrass; [7]
  Plant response rating, Crabgrass, Large: 100
Large crabgrass; 125 g ai/ha
  Crabgrass, Large plant response rating: 20
Large crabgrass; 500 g ai/ha
  Crabgrass, Large plant response rating: 30
velvetleaf; [6]
  Velvetleaf plant response rating (0 to 100 scale): 10
velvetleaf; [7]
  Plant response rating, Velvetleaf: 50
velvetleaf; 125 g ai/ha
  Velvetleaf plant response rating: 30
velvetleaf; 500 g ai/ha
  Velvetleaf plant response rating: 60
Giant foxtail; [6]
  Foxtail, Giant plant response rating (0 to 100 scale): 0
Giant foxtail; [7]
  Plant response rating, Foxtail, Giant: 70
Giant foxtail; 125 g ai/ha
  Foxtail, Giant plant response rating: 30
Giant foxtail; 500 g ai/ha
  Foxtail, Giant plant response rating: 40
morningglory; [6]
  Morningglory plant response rating (0 to 100 scale): 10
morningglory; [7]
  Plant response rating, Morningglory: 50
morningglory; 125 g ai/ha
  Morningglory plant response rating: 0
morningglory; 500 g ai/ha
  Morningglory plant response rating: 60
ducksalad
  Ducksalad plant response rating: 0
Barnyardgrass [2]
  Barnyardgrass plant response rating: 0
Surinam grass; [6]
  Surinam Grass plant response rating (0 to 100 scale): 0
Surinam grass; [7]
  Plant response rating, Surinam Grass: 30
Surinam grass; 125 g ai/ha
  Surinam Grass plant response rating: 10
Surinam grass; 500 g ai/ha
  Surinam Grass plant response rating: 20
blackgrass; 125 g ai/ha
  Blackgrass plant response rating: 0
blackgrass; 500 g ai/ha
  Blackgrass plant response rating: 0
Rice [3]; 125 g ai/ha, 0 = no effect, 100 = complete control
  Rice plant response rating (0 to 100 scale): 0
Rice [3]; 500 g ai/ha, visual rating 0-100, 0 no effect, 100 complete control
  Plant response rating, Rice: 0
cocklebur; [6]
  Cocklebur plant response rating (0 to 100 scale): 0
cocklebur; [7]
  Plant response rating, Cocklebur: 0
cocklebur; 125 g ai/ha
  Cocklebur plant response rating: 30
cocklebur; 500 g ai/ha
  Cocklebur plant response rating: 60
Barnyardgrass [4]; [6]
  Barnyardgrass plant response rating (0 to 100 scale): 0
Barnyardgrass [4]; [7]
  Plant response rating, Barnyardgrass: 60
Barnyardgrass [4]; 125 g ai/ha
  Barnyardgrass plant response rating: 0
Barnyardgrass [4]; 500 g ai/ha
  Barnyardgrass plant response rating: 0
Rice [5]
  Rice plant response rating: 0
wheat; 125 g ai/ha
  Wheat plant response rating: 0
wheat; 500 g ai/ha
  Wheat plant response rating: 0
pigweed; [6]
  Pigweed plant response rating (0 to 100 scale): 100
pigweed; [7]
  Plant response rating, Pigweed: 100
pigweed; 125 g ai/ha
  Pigweed plant response rating: 20
pigweed; 500 g ai/ha
  Pigweed plant response rating: 60
